This note sets out measurements from patent US9107870B2, “Angiotensin peptides in treating marfan syndrome and related disorders” (TARIX PHARMACEUTICALS LTD, priority 2013, dated 2015).

“Also recorded” adds a separate entry of the source.

The test system of assay [1] is Fbn1^C1039G/+ mice (Marfan mice). Nature of the assay: Aortic root growth in Marfan mice by in vivo echocardiography. Particulars: 500 μg/kg/day subcutaneous daily for 60 days, compared to Marfan mice treated with placebo, FIG. 1. The source says:
(§1) In this Example, a total of 20 mice were used, with 8 mice being wild-type and 12 being Fbn1^C1039G+ mice, also referred to as “Marfan mice”, that are each […] for a fibrillin-1 (Fbn1) allele encoding a cysteine substitution, Cys1039Gly (C1039G), in an epidermal growth factor-like domain of Fbn1 (Fbn1^C1039G/+).
The Fbn1C1039G mice are a well-accepted model of Marfan Syndrome and the Fbn1 mutation is the most common class of mutation causing Marfan Syndrome. Typically, the aortic root in Fbn1C1039G mice undergoes progressive dilatation, evident as early as 2 weeks of age. […] This observed size difference generally becomes more pronounced over time. […] In addition, Fbn1C1039G mice show increased collagen deposition, which is an indirect marker of increased TGF-β signaling.
In order to determine the effects of angiotensin (1-7) peptides, here TXA127, on the normal course of disease development, both wild-type and Marfan mice were each separated into two groups once the mice reached 2 months of age. […]
The primary endpoint of this study was degree of aortic growth observed over the 60 day treatment period, as measured by in vivo echocardiography. […]

In another assay the test system is wild-type mice. Nature of the assay: Aortic root growth in wild-type mice by in vivo echocardiography. The following applies: 500 μg/kg/day subcutaneous daily for 60 days, compared to wild type mice treated with placebo, FIG. 1.
From the text: as §1
In order to determine the effects of angiotensin (1-7) peptides, here TXA127, on the normal course of disease development, both wild-type and Marfan mice were each separated into two groups once the mice reached 2 months of age. In each of the wild-type mice and Marfan mice, the placebo control group received daily subcutaneous saline injections for 60 days, while the TXA127 group received daily subcutaneous injections of TXA127 at a dose of 500 μg/kg/day for 60 days.
The primary endpoint of this study was degree of aortic growth observed over the 60 day treatment period, as measured by in vivo echocardiography. A baseline echocardiogram was performed just prior to the beginning of the treatment period and then again just prior to sacrifice. After the 60 day treatment period, mice were sacrificed and tissue samples were taken for histological and other analysis.

On to “Asp^1-Arg^2-Val^3-Tyr^4-Ile^5-His^6-Pro^7 (DRVYIHP) [TXA127]”, for which, in assay [1], the “degree of aortic root growth” value is given as “highly significant reduction; also recorded: essentially eliminated”. For the same substance, in the assay with wild-type mice, the aortic root growth entry is recorded as “no statistically significant effect”.
